In test [1] the target is 3',5'-cyclic-AMP phosphodiesterase 4D (Homo sapiens, UniProt Q08499). As to the kind of experiment: Inhibition of human PDE4D2 catalytic domain (86 to 413) expressed in Escherichia coli BL21 using [3H]-cAMP/[3H]-cGMP after 15 mins by liquid scintillation counting.
Test [2] has as its target cGMP-specific 3',5'-cyclic phosphodiesterase (Homo sapiens, UniProt O76074). As to the kind of experiment: Inhibition of human PDE5A1 catalytic domain (535 to 860) expressed in Escherichia coli BL21 using [3H]-cAMP/[3H]-cGMP after 15 mins by liquid scintillation counting.
The target in test [3] is 3',5'-cyclic-AMP phosphodiesterase 4B (Homo sapiens, UniProt Q07343). As to the kind of experiment: Inhibition of human PDE4B2 catalytic domain and UCR2 (92 to 521) expressed in Escherichia coli BL21 using [3H]-cAMP/[3H]-cGMP after 15 mins by liquid scintillation counting.
Sequence of 3',5'-cyclic-AMP phosphodiesterase 4B (Q07343 whole entry, the tested form may be a part): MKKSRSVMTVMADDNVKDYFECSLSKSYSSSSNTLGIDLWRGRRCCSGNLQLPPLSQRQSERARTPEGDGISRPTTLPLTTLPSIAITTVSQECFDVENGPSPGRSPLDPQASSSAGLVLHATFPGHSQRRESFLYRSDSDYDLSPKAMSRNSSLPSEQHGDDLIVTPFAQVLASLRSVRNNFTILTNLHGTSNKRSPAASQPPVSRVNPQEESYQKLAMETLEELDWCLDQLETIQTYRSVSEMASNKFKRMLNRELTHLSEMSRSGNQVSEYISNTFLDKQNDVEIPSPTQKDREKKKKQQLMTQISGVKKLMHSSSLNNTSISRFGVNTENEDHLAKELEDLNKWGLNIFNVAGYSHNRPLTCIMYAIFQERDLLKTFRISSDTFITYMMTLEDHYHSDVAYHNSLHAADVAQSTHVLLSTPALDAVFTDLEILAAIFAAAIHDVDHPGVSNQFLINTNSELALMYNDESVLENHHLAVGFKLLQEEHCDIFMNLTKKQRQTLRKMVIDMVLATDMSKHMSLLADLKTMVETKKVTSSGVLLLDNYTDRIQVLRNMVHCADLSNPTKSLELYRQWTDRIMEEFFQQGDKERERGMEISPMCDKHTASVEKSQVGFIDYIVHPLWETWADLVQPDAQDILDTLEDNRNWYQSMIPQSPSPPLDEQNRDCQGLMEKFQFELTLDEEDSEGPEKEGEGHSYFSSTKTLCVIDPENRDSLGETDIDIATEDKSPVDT
In test [4] the target is High affinity cGMP-specific 3',5'-cyclic phosphodiesterase 9A (Homo sapiens, UniProt O76083). As to the kind of experiment: Inhibition of human PDE9A2 catalytic domain (181 to 506) expressed in Escherichia coli BL21 using [3H]-cAMP/[3H]-cGMP after 15 mins by liquid scintillation counting.
Sequence of High affinity cGMP-specific 3',5'-cyclic phosphodiesterase 9A (O76083 whole entry, the tested form may be a part): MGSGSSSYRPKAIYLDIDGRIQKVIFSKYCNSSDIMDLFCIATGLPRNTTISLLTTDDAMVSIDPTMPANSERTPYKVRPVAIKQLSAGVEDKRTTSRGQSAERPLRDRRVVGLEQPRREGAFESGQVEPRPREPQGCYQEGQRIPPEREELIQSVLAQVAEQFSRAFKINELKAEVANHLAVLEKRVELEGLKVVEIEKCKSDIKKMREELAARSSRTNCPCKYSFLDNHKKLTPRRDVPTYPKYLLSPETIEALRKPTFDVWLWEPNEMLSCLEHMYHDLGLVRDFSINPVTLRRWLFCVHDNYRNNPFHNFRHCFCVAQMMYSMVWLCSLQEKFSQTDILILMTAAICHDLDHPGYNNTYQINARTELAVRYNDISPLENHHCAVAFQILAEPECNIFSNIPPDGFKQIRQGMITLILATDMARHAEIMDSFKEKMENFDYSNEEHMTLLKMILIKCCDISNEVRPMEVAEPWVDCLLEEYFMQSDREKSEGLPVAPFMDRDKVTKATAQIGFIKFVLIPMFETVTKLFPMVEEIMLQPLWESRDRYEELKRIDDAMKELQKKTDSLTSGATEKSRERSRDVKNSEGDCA

Some results are limits rather than exact numbers.

Sequence of 3',5'-cyclic-AMP phosphodiesterase 4D (Q08499 whole entry, the tested form may be a part): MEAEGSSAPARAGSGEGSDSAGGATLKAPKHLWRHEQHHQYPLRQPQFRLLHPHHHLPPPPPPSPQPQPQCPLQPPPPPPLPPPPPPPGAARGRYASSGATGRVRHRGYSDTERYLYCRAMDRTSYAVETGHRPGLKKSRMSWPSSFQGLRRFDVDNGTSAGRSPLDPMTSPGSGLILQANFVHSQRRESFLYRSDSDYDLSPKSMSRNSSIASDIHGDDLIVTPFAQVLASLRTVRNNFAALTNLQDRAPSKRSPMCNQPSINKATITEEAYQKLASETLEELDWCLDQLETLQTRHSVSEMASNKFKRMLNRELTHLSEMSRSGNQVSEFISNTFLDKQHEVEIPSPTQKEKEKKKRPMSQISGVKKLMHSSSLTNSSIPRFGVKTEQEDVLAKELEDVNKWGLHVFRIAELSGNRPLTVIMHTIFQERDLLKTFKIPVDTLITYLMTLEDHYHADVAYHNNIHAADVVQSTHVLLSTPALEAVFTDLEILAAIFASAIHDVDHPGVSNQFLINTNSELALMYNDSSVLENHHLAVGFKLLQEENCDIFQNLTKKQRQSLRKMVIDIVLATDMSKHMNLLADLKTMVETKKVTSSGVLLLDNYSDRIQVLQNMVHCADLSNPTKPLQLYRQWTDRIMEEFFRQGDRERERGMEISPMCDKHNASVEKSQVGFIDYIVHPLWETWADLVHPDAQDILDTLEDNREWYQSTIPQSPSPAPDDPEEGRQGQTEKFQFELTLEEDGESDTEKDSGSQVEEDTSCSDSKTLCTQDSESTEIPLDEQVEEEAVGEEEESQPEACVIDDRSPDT

As to `CC(C)=CCc1c(O)cc(-c2cc3ccc(O)cc3o2)cc1O` [MORACIN C], the IC50 in test [1] is 26 µM; in test [2], over 50 µM; in test [3], 18.1 µM; in test [4], over 100 µM.

In the case of `Oc1cc(O)cc(-c2cc3ccc(O)cc3o2)c1` [MORACIN M], the figures for the IC50 in test [2], in test [3] and in test [4] were over 40 µM, 4.5 µM and over 100 µM, respectively.

Usually IC50 stands for the concentration that gives 50% inhibition. Low values mean greater potency in that assay, high ones weaker potency in that assay.

(Values after ChEMBL document CHEMBL2016435 (Bioorg Med Chem Lett, 2012).)
